Source: publication PMC10196118, “Evidence for broad cross-reactivity of the SARS-CoV-2 NSP12-directed CD4^+ T-cell response with pre-primed responses directed against common cold coronaviruses” (Frontiers in Immunology, 2023)

Experiments:
Assay in all cases: biochemical
Type in all cases: binding
HLA DRB1*01:01 = HLA DRB1*01:01 (Homo sapiens, UniProt P01903+P01911, A100R/D57E/F55L/F60I/F76Y/I96L/L162R/M171V/P40L/Q125E/R42F/V115G/Y59C); conditions: binder threshold 1,000 nM, read-out: In vitro (IC50 nM) DRB1*01:01
HLA DRB1*03:01 = HLA DRB1*03:01 (Homo sapiens, UniProt P01903+P01911, A100K/A102G/A103R/A169T/F55Y/I96L/K41T/L162R/M171V/P40S/Q125H/Q178H/Q39Y/R42S/S66N/T106N/T262R/W38E/Y61H); conditions: binder threshold 1,000 nM, read-out: In vitro (IC50 nM) DRB1*03:01
HLA DRB1*04:01 = HLA DRB1*04:01 (Homo sapiens, UniProt P01903+P01911, A100K/A169T/F76Y/I96L/K127E/L162R/M171V/N62H/P40V/Q125Y/R42H/S133A/S149N/S66Y/V115G/V209L/W38E); conditions: binder threshold 1,000 nM, read-out: In vitro (IC50 nM) DRB1*04:01
HLA DRB1*04:05 = HLA DRB1*04:05 (Homo sapiens, UniProt P01903+P01911, A100R/A169T/D86S/F76Y/I96L/K127E/L162R/M171V/N62H/P40V/Q125Y/R42H/S133A/S149N/S66Y/V115G/V209L/W38E); conditions: binder threshold 1,000 nM, read-out: In vitro (IC50 nM) DRB1*04:05
HLA DRB1*07:01 = HLA DRB1*07:01 (Homo sapiens, UniProt P01903+P01911, A100R/A102G/A103Q/D57E/D86V/E43K/F76Y/K127E/L162R/M171V/P40G/Q125H/Q99D/R33Q/R42Y/R54Q/S133A/S66F/T210M/V115G/Y107V/Y59L/Y89S); conditions: binder threshold 1,000 nM, read-out: In vitro (IC50 nM) DRB1*07:01
HLA DRB1*08:02 = HLA DRB1*08:02 (Homo sapiens, UniProt P01903+P01911, A100R/A103L/A169T/F76Y/H45Y/I96F/K41T/L162R/M171V/P40S/Q125H/Q178H/Q39Y/Q99D/R218S/R42G/S66Y/V115G/W38E); conditions: binder threshold 1,000 nM, read-out: In vitro (IC50 nM) DRB1*08:02
HLA DRB1*09:01 = HLA DRB1*09:01 (Homo sapiens, UniProt P01903+P01911, A100R/A103E/D57H/D86V/F55Y/F60I/F76Y/I96F/K127E/L162R/M171V/P40D/Q125H/Q99R/R33Q/R42F/S133A/S66N/T210M/V115G/W38K/Y107V/Y59G/Y89S); conditions: binder threshold 1,000 nM, read-out: In vitro (IC50 nM) DRB1*09:01
HLA DRB1*11:01 = HLA DRB1*11:01 (Homo sapiens, UniProt P01903+P01911, A100R/A169T/A87E/I96F/K41T/L162R/M171V/P40S/Q125H/Q178H/Q39Y/Q99D/R42S/S66Y/T262R/V115G/W38E); conditions: binder threshold 1,000 nM, read-out: In vitro (IC50 nM) DRB1*11:01
HLA DRB1*12:01 = HLA DRB1*12:01 (Homo sapiens, UniProt P01903+P01911, A100R/A169T/D57E/D86V/F55L/H45Y/K41T/L162R/M171V/P40S/Q125H/Q178H/Q39Y/Q99D/R42G/S66L/T262R/V114A/V67L/W38E/Y59H/Y61H/Y89S); conditions: binder threshold 1,000 nM, read-out: In vitro (IC50 nM) DRB1*12:01
HLA DRB1*15:01 = HLA DRB1*15:01 (Homo sapiens, UniProt P01903+P01911); conditions: binder threshold 1,000 nM, read-out: In vitro (IC50 nM) DRB1*15:01

Sequence of HLA DRB1*11:01 (P01903 26-254, other chains not shown): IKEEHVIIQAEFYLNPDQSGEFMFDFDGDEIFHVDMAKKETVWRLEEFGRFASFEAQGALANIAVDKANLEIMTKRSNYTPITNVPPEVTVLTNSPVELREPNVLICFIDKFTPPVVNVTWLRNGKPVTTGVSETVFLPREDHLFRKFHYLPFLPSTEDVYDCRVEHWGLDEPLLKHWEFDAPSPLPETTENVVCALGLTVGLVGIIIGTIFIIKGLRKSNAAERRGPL
Sequence of HLA DRB1*03:01 (P01903 26-254, other chains not shown): as above

Compound	IC50 (HLA DRB1*01:01)	IC50 (HLA DRB1*03:01)	IC50 (HLA DRB1*04:01)	IC50 (HLA DRB1*04:05)	IC50 (HLA DRB1*07:01)	IC50 (HLA DRB1*08:02)	IC50 (HLA DRB1*09:01)	IC50 (HLA DRB1*11:01)	IC50 (HLA DRB1*12:01)	IC50 (HLA DRB1*15:01)
CC[C@H](C)[C@H](NC(=O)[C@@H]1CCCN1C(=O)[C@H](CCSC)NC(=O)[C@H](CC(C)C)NC(=O)[C@H](CC(C)C)NC(=O)[C@H](CO)NC(=O)[C@H](Cc1ccc(O)cc1)NC(=O)[C@H](Cc1ccc(O)cc1)NC(=O)[C@@H](N)CO)C(=O)N[C@@H](CC(C)C)C(=O)N[C@H](C(=O)N[C@@H](CC(C)C)C(=O)N[C@H](C(=O)N[C@@H](CCCNC(=N)N)C(=O)N[C@@H](C)C(=O)O)[C@@H](C)O)[C@@H](C)O [NSP12_48]	7.7 nM	9120 nM	224 nM	147 nM	115 nM	498 nM	1550 nM	73 nM	1350 nM	23 nM
CSCC[C@H](NC(=O)[C@H](CO)NC(=O)[C@H](Cc1ccccc1)NC(=O)[C@H](Cc1c[nH]cn1)NC(=O)[C@H](CCCCN)NC(=O)[C@H](CCCNC(=N)N)NC(=O)[C@H](CC(C)C)NC(=O)[C@H](Cc1ccc(O)cc1)NC(=O)[C@H](C)NC(=O)[C@H](Cc1ccc(O)cc1)NC(=O)[C@H](Cc1ccccc1)NC(=O)[C@H](CCC(=O)O)NC(=O)[C@H](CC(N)=O)NC(=O)[C@@H](NC(=O)[C@@H](N)Cc1ccccc1)C(C)C)C(=O)O [NSP12_149]	36100 nM		8370 nM		3830 nM	828 nM	2510 nM	70 nM	2540 nM	1250 nM
CC[C@H](C)[C@H](NC(=O)[C@H](CC(=O)O)NC(=O)[C@H](CS)NC(=O)[C@H](CCSC)NC(=O)[C@@H](NC(=O)[C@@H]1CCCN1C(=O)[C@H](CC(C)C)NC(=O)[C@H](CC(N)=O)NC(=O)[C@H](Cc1ccc(O)cc1)NC(=O)[C@H](CCCNC(=N)N)NC(=O)[C@@H](N)Cc1ccc(O)cc1)[C@@H](C)O)C(=O)N[C@@H](CCCNC(=N)N)C(=O)N[C@@H](CCC(N)=O)C(=O)N[C@@H](CC(C)C)C(=O)N[C@@H](CC(C)C)C(=O)O [Peptide 92]	12000 nM		5310 nM	4640 nM	1840 nM		1490 nM	8940 nM	5120 nM	2910 nM
CC(C)C[C@H](NC(=O)[C@H](C)NC(=O)[C@H](CC(=O)O)NC(=O)[C@H](CCC(N)=O)NC(=O)[C@H](CC(=O)O)NC(=O)[C@H](CCC(=O)O)NC(=O)[C@@H](N)Cc1ccc(O)cc1)C(=O)N[C@@H](Cc1ccccc1)C(=O)N[C@@H](C)C(=O)N[C@@H](Cc1ccc(O)cc1)C(=O)N[C@H](C(=O)N[C@@H](CCCCN)C(=O)N[C@@H](CCCNC(=N)N)C(=O)N[C@@H](CC(N)=O)C(=O)N[C@H](C(=O)O)C(C)C)[C@@H](C)O [Peptide 105]	16000 nM	39400 nM	3090 nM		35 nM	495 nM	8570 nM	21 nM		480 nM
CC(C)[C@H](NC(=O)[C@H](CO)NC(=O)[C@H](CC(N)=O)NC(=O)[C@H](C)NC(=O)[C@H](Cc1ccc(O)cc1)NC(=O)[C@H](C)NC(=O)[C@@H](NC(=O)[C@@H](NC(=O)[C@H](C)NC(=O)[C@H](CC(=O)O)NC(=O)CNC(=O)[C@H](CO)NC(=O)[C@@H](N)CO)[C@@H](C)O)[C@@H](C)O)C(=O)N[C@@H](Cc1ccccc1)C(=O)N[C@@H](CC(N)=O)C(=O)O [Peptide 137]	1800 nM		5180 nM	27200 nM	3970 nM		197 nM	15900 nM	22700 nM	567 nM
